Type in all cases: in vivo
In experiment [1] the test system is transgenic arabidopsis plants carrying both the pHTOP-FT construct and the LhG4-GR construct. Put plainly: Transgenic arabidopsis grown in the presence of DEX: flowering and GUS staining. As for the experimental part:
(A) A plant grown on a 30 μM MS-DEX plate; (B) No DEX control; (C) and (D) GUS staining of leaves from induced plants; (E) GUS staining of a leaf from a non-induced LhGr/pHtop-FT plant; GUS staining of a leaf from a Col wild type plant.
The arabidopsis FT cDNA was inserted into the pHTOP vector system to facilitate inducible expression of the gene using heterologous transcription factor system LhG4^19,27.
This inducible system allows for simultaneous expression of two genes from the same reporter construct. In the experiment described here the GUS gene was used as a second gene in addition to FT.

Experiment [2] deals with FT gene. Kind of experiment: FT gene induction levels in sprayed transgenic arabidopsis plants (real-time RT-PCR). To be noted: for fold gene induction: short day conditions. The procedure:
Total RNA was converted to cDNA using standard protocols using 1-5 ug of RNA as measured by OD260.
Quantitative RT-PCR was performed in the BioRad iCycler instrument using standard protocols and SyberGreen as reporting dye
Actin gene levels were assayed using oligonucleotides GTF037 (Seq ID. No. 28) 5′[…]3′ and GTF038 (Seq ID No. 29) 5′[…]3′, and served as standards to normalize measurements of other genes.
To create a copy number calibration curve for individual genes, standards were made up from corresponding PCR products, measuring their concentration using gel serial dilution methods and spectrophotometry. Standard copy numbers were varied from 1 to 10^8 with 10× increments.
Amplifications were performed in triplicates, error rates were estimated by adding the average variance between triplicate samples, and average error of the standard curve fit of the standards of both the gene of interest and of the actin standard.
We have also measured the FT gene induction levels in the sprayed transgenic arabidopsis plants compared with the non-sprayed or non-transgenic controls in plants grown in short day conditions, the results are summarized in the table below:
The methodology we used to measure the gene induction levels was essentially the same as described elsewhere in the patent, except that we used the arabidopsis gene-specific primers NIK13 5′[…]3′ (SEQ ID NO: 34) and NIK14 5′[…]3′ (SEQ ID NO: 35).

In experiment [3] the test system is Arabidopsis plants containing the pHTOP::FT inducible construct. Kind of experiment: Time to flowering of arabidopsis plants sprayed with DEX inducer. Also on record: time to flowering: unit not given here.

These results are taken from patent US7626082B2, “Flowering induction” (Agriculture Victoria Services Pty Ltd., priority 2003, dated 2009).

Turning to `C[C@@H]1C[C@H]2[C@@H]3CCC4=CC(=O)C=C[C@]4(C)[C@@]3(F)[C@@H](O)C[C@]2(C)[C@@]1(O)C(=O)CO` [DEX, dexmethasone], the flowering result in experiment [1] (pHTOP-FT + LhG4-GR plants grown in the presence of DEX (30 μM MS-DEX plate, FIG. 5)) is “accelerated flowering”. In experiment [1] (pHTOP-FT + LhG4-GR plants grown in the presence of DEX (FIG. 5)), the “GUS staining (reporter gene activity)” value is on record as “GUS staining”. Besides, the “induction in the cDNA level as assayed in real-time RT-PCR” value was “lesser induction” in experiment [2] (1 mM spray of inducer) and above 100 fold in experiment [2] (plants 3 days after treatment with high level of the DEX inducer). Also, the fold gene induction is listed as 1x in experiment [2] (LhG4-mGR driver plants, sprayed twice 30 μM); 1x in experiment [2] (pHTOP::FT plants, sprayed twice 30 nM); 20x in experiment [2] (pHTOP::FT plants, sprayed twice 1 μM); 120x in experiment [2] (pHTOP::FT plants, sprayed twice 30 μM); 1x in experiment [2] (wild type plants, sprayed twice 30 μM). For the same compound, the time to flowering was 20 in experiment [3] (LhG4-mGR driver, line S7, sprayed twice 30 μM, unit not in table (b146 speaks of days)); 20 in experiment [3] (pHTOP::FT, line COF3-12, sprayed twice 30 nM); 20 in experiment [3] (pHTOP::FT, line COF3-12, sprayed twice 1 μM); 16.5 in experiment [3] (pHTOP::FT, line COF3-12, sprayed twice 30 μM); 20 in experiment [3] (pHTOP::FT, line COF7-30, sprayed twice 30 nM); 19 in experiment [3] (pHTOP::FT, line COF7-30, sprayed twice 1 μM). Also, the time to flowering in experiment [3] (pHTOP::FT, line COF7-30, sprayed twice 30 μM) is 14.86; in experiment [3] (wild type, line Col, sprayed twice 30 μM) it was 20. Moreover, the emergence of inflorescences result in experiment [3] (pHTOP::FT plants sprayed with 30 mM DEX, 6 days after spraying (FIG. 12)) is “inflorescences have emerged”. Further, the “reduction of time to flowering” value in experiment [3] (spraying with 30 mM inducer, compared to non-transgenic or non-sprayed plants) is reported as “up to 6 days”.
